The target of this assay is T1, human PDE5 (Homo sapiens, UniProt O76074).
T1 construct: from tissue; host or cells: platelets from fresh blood of human donors (lysate, 10,000 g supernatant)
Nature of the assay: Inhibition of the type 5 phosphodiesterase (PDE5) activity, modified SPA test with platelet lysate. The format is biochemical. The following applies: PDE5 from human platelet lysate, 0.5 μM cGMP. The procedure, abridged:
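Human platelet lysate (10,000 g supernatant) as PDE5 source in SPA with 0.5 μM cGMP plus [3H]cGMP tracer, pH 7.4, 5 mM Mg2+, 1 μM motapizone and 10 nM PDE2 inhibitor; 10–20% conversion. 5 min preincubation, 15 min at 37 °C, stopped with SPA beads/IBMX. IC50 by non-linear regression.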
What is called IC50 is the concentration that gives 50% inhibition. In turn, `CCOC(=O)N[C@H]1CC[C@H](NC(=O)c2c[nH]c3c(-c4cc(OC)ccc4OCC4CC4)ncnc23)CC1` [Example 66, trans-(4-{[4-(2-Cyclopropylmethoxy-5-methoxy-phenyl)-5H-pyrrolo[3,2-d]pyrimidine-7-carbonyl]-amino}-cyclohexyl)-carbamic acid ethyl ester] gave an IC50 of 0.631 nM. Consider `COc1ccc(OCC2CC2)c(-c2ncnc3c(C(=O)N[C@H]4CC[C@@H](NC(C)=O)CC4)c[nH]c23)c1` [Example 67, cis-4-(2-Cyclopropylmethoxy-5-methoxy-phenyl)-5H-pyrrolo[3,2-d]pyrimidine-7-carboxylic acid (4-acetylamino-cyclohexyl)-amide], for which it took 1.38 nM to reach half-maximal inhibition (IC50). The value for `COc1ccc(OCC2CC2)c(-c2ncnc3c(C(=O)N[C@H]4CC[C@@H](NC(=O)C5CC5)CC4)c[nH]c23)c1` [Example 68, cis-4-(2-Cyclopropylmethoxy-5-methoxy-phenyl)-5H-pyrrolo[3,2-d]pyrimidine-7-carboxylic acid [4-(cyclopropanecarbonyl-amino)cyclohexyl]-amide] was 0.912 nM. The value for `COCC(=O)N[C@H]1CC[C@@H](NC(=O)c2c[nH]c3c(-c4cc(OC)ccc4OCC4CC4)ncnc23)CC1` [Example 69, cis-4-(2-Cyclopropylmethoxy-5-methoxy-phenyl)-5H-pyrrolo[3,2-d]pyrimidine-7-carboxylic acid [4-(2-methoxy-acetylamino)-cyclohexyl]-amide] was 1.78 nM; that for `CCOC(=O)N[C@H]1CC[C@@H](NC(=O)c2c[nH]c3c(-c4cc(OC)ccc4OCC4CC4)ncnc23)CC1` [Example 70, cis-(4-{[4-(2-Cyclopropylmethoxy-5-methoxy-phenyl)-5H-pyrrolo[3,2-d]pyrimidine-7-carbonyl]-amino}-cyclohexyl)-carbamic acid ethyl ester] was 1.07 nM; that for `COc1ccc(OCC2CC2)c(-c2ncnc3c(C(=O)NC4CCN(C(C)=O)CC4)c[nH]c23)c1` [Example 71, 4-(2-Cyclopropylmethoxy-5-methoxy-phenyl)-5H-pyrrolo[3,2-d]pyrimidine-7-carboxylic acid (1-acetyl-piperidin-4-yl)-amide] was 1.35 nM. As for `COc1ccc(OCC2CC2)c(-c2ncnc3c(C(=O)NC4CCN(C(=O)C5CC5)CC4)c[nH]c23)c1` [Example 72, 4-(2-Cyclopropylmethoxy-5-methoxy-phenyl)-5H-pyrrolo[3,2-d]pyrimidine-7-carboxylic acid (1-cyclopropanecarbonyl-piperidin-4-yl)-amide], the figure is 0.437 nM; as for `COCC(=O)N1CCC(NC(=O)c2c[nH]c3c(-c4cc(OC)ccc4OCC4CC4)ncnc23)CC1` [Example 73, 4-(2-Cyclopropylmethoxy-5-methoxy-phenyl)-5H-pyrrolo[3,2-d]pyrimidine-7-carboxylic acid [1-(2-methoxy-acetyl)piperidin-4-yl]-amide], 1.86 nM. In the case of `CCOC(=O)N1CCC(NC(=O)c2c[nH]c3c(-c4cc(OC)ccc4OCC4CC4)ncnc23)CC1` [Example 74, 4-{[4-(2-Cyclopropylmethoxy-5-methoxy-phenyl)-5H-pyrrolo[3,2-d]pyrimidine-7-carbonyl]-amino}-piperidine-1-carboxylic acid ethyl ester], it took 0.55 nM to reach half-maximal inhibition (IC50).

For the compound `CC(=O)N[C@H]1CC[C@@H](NC(=O)c2c[nH]c3c(-c4ccc(F)cc4OCC4CC4)ncnc23)CC1` [Example 75, cis-4-(2-Cyclopropylmethoxy-4-fluoro-phenyl)-5H-pyrrolo[3,2-d]pyrimidine-7-carboxylic acid (4-acetylamino-cyclohexyl)-amide], half-maximal inhibition (IC50) required 1.58 nM.

Turning to `COCC(=O)N[C@H]1CC[C@@H](NC(=O)c2c[nH]c3c(-c4ccc(F)cc4OCC4CC4)ncnc23)CC1` [Example 76, cis-4-(2-Cyclopropylmethoxy-4-fluoro-phenyl)-5H-pyrrolo[3,2-d]pyrimidine-7-carboxylic acid [4-(2-methoxy-acetylamino)-cyclohexyl]-amide], the IC50 is 2.4 nM. The value for `CCOC(=O)N[C@H]1CC[C@@H](NC(=O)c2c[nH]c3c(-c4ccc(F)cc4OCC4CC4)ncnc23)CC1` [Example 77, cis-(4-{[4-(2-Cyclopropylmethoxy-4-fluoro-phenyl)-5H-pyrrolo[3,2-d]pyrimidine-7-carbonyl]-amino}-cyclohexyl)-carbamic acid ethyl ester] was 2.14 nM; that for `CC(=O)N[C@H]1CC[C@H](NC(=O)c2c[nH]c3c(-c4ccc(F)cc4OCC4CC4)ncnc23)CC1` [Example 78, trans-4-(2-Cyclopropylmethoxy-4-fluoro-phenyl)-5H-pyrrolo[3,2-d]pyrimidine-7-carboxylic acid (4-acetylamino-cyclohexyl)-amide] was 2.29 nM. As for `COCC(=O)N[C@H]1CC[C@H](NC(=O)c2c[nH]c3c(-c4ccc(F)cc4OCC4CC4)ncnc23)CC1` [Example 79, trans-4-(2-Cyclopropylmethoxy-4-fluoro-phenyl)-5H-pyrrolo[3,2-d]pyrimidine-7-carboxylic acid [4-(2-methoxy-acetylamino)-cyclohexyl]-amide], half-maximal inhibition (IC50) required 1.55 nM.

The compound `CCOC(=O)N[C@H]1CC[C@H](NC(=O)c2c[nH]c3c(-c4ccc(F)cc4OCC4CC4)ncnc23)CC1` [Example 80, trans-(4-{[4-(2-Cyclopropylmethoxy-4-fluoro-phenyl)-5H-pyrrolo[3,2-d]pyrimidine-7-carbonyl]-amino}-cyclohexyl)-carbamic acid ethyl ester] had an IC50 of 1.41 nM. Regarding `CC(=O)N1CCC(NC(=O)c2c[nH]c3c(-c4ccc(F)cc4OCC4CC4)ncnc23)CC1` [Example 81, 4-(2-Cyclopropylmethoxy-4-fluoro-phenyl)-5H-pyrrolo[3,2-d]pyrimidine-7-carboxylic acid (1-acetyl-piperidin-4-yl)-amide], the IC50 was 1.48 nM. As to `CCC(=O)N1CCC(NC(=O)c2c[nH]c3c(-c4ccc(F)cc4OCC4CC4)ncnc23)CC1` [Example 82, 4-(2-Cyclopropylmethoxy-4-fluoro-phenyl)-5H-pyrrolo[3,2-d]pyrimidine-7-carboxylic acid (1-propionyl-piperidin-4-yl)-amide], 1.1 nM corresponded to half-maximal inhibition (IC50).

The compound `COCC(=O)N1CCC(NC(=O)c2c[nH]c3c(-c4ccc(F)cc4OCC4CC4)ncnc23)CC1` [Example 83, 4-(2-Cyclopropylmethoxy-4-fluoro-phenyl)-5H-pyrrolo[3,2-d]pyrimidine-7-carboxylic acid [1-(2-methoxy-acetyl)piperidin-4-yl]-amide] had a concentration for half-maximal inhibition (IC50) of 5.13 nM. The value for `CC(=O)N1CCC(NC(=O)c2c[nH]c3c(-c4cc(F)ccc4OCC4CC4)ncnc23)CC1` [Example 84, 4-(2-Cyclopropylmethoxy-5-fluoro-phenyl)-5H-pyrrolo[3,2-d]pyrimidine-7-carboxylic acid (1-acetyl-piperidin-4-yl)-amide] was 2.95 nM; that for `CCC(=O)N1CCC(NC(=O)c2c[nH]c3c(-c4cc(F)ccc4OCC4CC4)ncnc23)CC1` [Example 85, 4-(2-Cyclopropylmethoxy-5-fluoro-phenyl)-5H-pyrrolo[3,2-d]pyrimidine-7-carboxylic acid (1-propionyl-piperidin-4-yl)-amide] was 1.58 nM. `COCC(=O)N1CCC(NC(=O)c2c[nH]c3c(-c4cc(F)ccc4OCC4CC4)ncnc23)CC1` [Example 86, 4-(2-Cyclopropylmethoxy-5-fluoro-phenyl)-5H-pyrrolo[3,2-d]pyrimidine-7-carboxylic acid [1-(2-methoxy-acetyl)piperidin-4-yl]-amide] gave an IC50 of 3.98 nM. The value for `CC(=O)N[C@H]1CC[C@H](NC(=O)c2c[nH]c3c(-c4cc(F)ccc4OCC4CC4)ncnc23)CC1` [Example 87, trans-4-(2-Cyclopropylmethoxy-5-fluoro-phenyl)-5H-pyrrolo[3,2-d]pyrimidine-7-carboxylic acid (4-acetylamino-cyclohexyl)-amide] was 1.12 nM; that for `CCC(=O)N[C@H]1CC[C@H](NC(=O)c2c[nH]c3c(-c4cc(F)ccc4OCC4CC4)ncnc23)CC1` [Example 88, trans-4-(2-Cyclopropylmethoxy-5-fluoro-phenyl)-5H-pyrrolo[3,2-d]pyrimidine-7-carboxylic acid (4-propionylamino-cyclohexyl)-amide] was 1.66 nM. As for `COCC(=O)N[C@H]1CC[C@H](NC(=O)c2c[nH]c3c(-c4cc(F)ccc4OCC4CC4)ncnc23)CC1` [Example 89, trans-4-(2-Cyclopropylmethoxy-5-fluoro-phenyl)-5H-pyrrolo[3,2-d]pyrimidine-7-carboxylic acid [4-(2-methoxy-acetylamino)-cyclohexyl]-amide], the figure is 1.29 nM. Compound `CC(=O)N[C@H]1CC[C@H](NC(=O)c2c[nH]c3c(-c4ccccc4OCC4CC4)ncnc23)CC1` [Example 90, trans-4-(2-Cyclopropylmethoxy-phenyl)-5H-pyrrolo[3,2-d]pyrimidine-7-carboxylic acid (4-acetylamino-cyclohexyl)-amide] had an IC50 of 5.62 nM.

Turning to `COCC(=O)N[C@H]1CC[C@H](NC(=O)c2c[nH]c3c(-c4ccccc4OCC4CC4)ncnc23)CC1` [Example 91, trans-4-(2-Cyclopropylmethoxy-phenyl)-5H-pyrrolo[3,2-d]pyrimidine-7-carboxylic acid [4-(2-methoxy-acetylamino)-cyclohexyl]-amide], the IC50 is 6.31 nM. `CCOC(=O)N[C@H]1CC[C@H](NC(=O)c2c[nH]c3c(-c4ccccc4OCC4CC4)ncnc23)CC1` [Example 92, trans-(4-{[4-(2-Cyclopropylmethoxy-phenyl)-5H-pyrrolo[3,2-d]pyrimidine-7-carbonyl]-amino}-cyclohexyl)-carbamic acid ethyl ester] gave an IC50 of 3.39 nM. The value for `O=C(N[C@H]1CC[C@H](NC(=O)C2CC2)CC1)c1c[nH]c2c(-c3ccccc3OCC3CC3)ncnc12` [Example 93, trans-4-(2-Cyclopropylmethoxy-phenyl)-5H-pyrrolo[3,2-d]pyrimidine-7-carboxylic acid [4-(cyclopropanecarbonyl-amino)cyclohexyl]-amide] was 2.51 nM.
